These results are taken from patent publication US20040142979A1, “Heteroarylsulfonylmethyl hydroxamic acids and amides and their use as protease inhibitors” (priority 2002, published 2004).

In data set [1] the test system is advanced, rapidly progressive, treatment-refractory solid tumor cancers (colorectal, pancreatic, ovarian, and prostate). To be noted: cited from earlier work.
In a further data set the target is T1, Human recombinant MMP-2 (Homo sapiens, UniProt P08253).
T1 construct: made in house; host or cells: MMP-2-transfected p2AHT2 cells
T1 sequence (P08253 110-660): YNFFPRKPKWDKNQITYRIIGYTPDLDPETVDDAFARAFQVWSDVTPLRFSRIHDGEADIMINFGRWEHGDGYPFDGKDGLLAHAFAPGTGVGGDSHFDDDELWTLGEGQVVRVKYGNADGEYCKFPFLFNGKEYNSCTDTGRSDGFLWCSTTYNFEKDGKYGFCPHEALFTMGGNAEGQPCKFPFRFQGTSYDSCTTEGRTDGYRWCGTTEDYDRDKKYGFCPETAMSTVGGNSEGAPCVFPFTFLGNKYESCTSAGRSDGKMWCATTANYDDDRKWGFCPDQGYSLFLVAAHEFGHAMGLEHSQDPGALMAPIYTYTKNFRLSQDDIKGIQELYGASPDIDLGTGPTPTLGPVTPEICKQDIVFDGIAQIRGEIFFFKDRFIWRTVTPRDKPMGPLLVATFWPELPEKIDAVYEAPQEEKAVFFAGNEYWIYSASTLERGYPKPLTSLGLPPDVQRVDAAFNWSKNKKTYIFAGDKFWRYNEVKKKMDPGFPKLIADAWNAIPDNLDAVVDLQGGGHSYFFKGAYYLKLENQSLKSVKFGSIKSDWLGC
Put plainly: In vitro MMP inhibition analysis (fluorogenic peptide substrate), MMP-2. Type of data set: biochemical. To be noted: human recombinant enzyme; 4 μM substrate (A); apparent Ki without substrate correction. On the procedure:
(§1) Several compounds and salts were analyzed in an in vitro assay to determine their ability to inhibit the MMP cleavage of peptide substrates. Inhibition constant (Ki) were calculated from the assayed compound-MMP interactions.
(§2) Human recombinant MMP-1, MMP-2, MMP-9, MMP-13, and MMP-14 were used in this assay. All enzymes were prepared in Assignee's laboratories following usual laboratory procedures. Protocols for the preparation and use of these enzymes are available in the scientific literature. See, e.g., Enzyme Nomenclature (Academic Press, San Diego, Calif., 1992) (and the citations therein). See also, Freije et al., J. Biol. Chem., 269(24), 16766-16773 (1994).
The MMP-2 proenzyme was purified by gelatin Sepharose chromatography from MMP-2- transfected p2AHT2 cells provided by Dr. Gregory Goldberg of Washington University (St. Louis, Mo.).
(§3) All MMPs were activated using 4-aminophenylmercuric acetate (“APMA”, Sigma Chemical, St. Louis, Mo.) or trypsin. MMP-9 also was activated using human recombinant MMP-3 (purified in Assignee's laboratory following standard cloning and purification techniques).
(§4) The following fluorogenic, methoxycoumarin-containing polypeptide substrate (A) was used in the MMP inhibition assays:
(§5) MCA-ArgProLeuGlyLeuDpaAlaArgGluArgNH2 (A)
(§6) “MCA” is 7-methoxycoumarin-4-yl acetyl. Substrate (A) was prepared Assignee's laboratory. In the absence of MMP inhibitory activity, the substrate is cleaved at the Gly-Leu peptide bond. This cleavage separates the highly fluorogenic peptide from the 2,4-dinitrophenyl quencher, thus resulting in increase of fluorescent intensity.
(§7) The stock solutions of the assayed compounds and salts were prepared in 1% dimethyl sulfoxide (DMSO). These stock solutions were diluted in Buffer A (100 mM Tris-HCl, 100 mM NaCl, 10 mM CaCl2, 0.05% polyoxyethylene 23 lauryl ether, pH 7.5) to obtain solutions with different compound concentrations, i.e., assay solutions with different concentrations of the assayed MMP inhibitory compound. The experiment controls contained the same amount of Buffer A/DMSO as the assayed sample, but contained none of the tested compound or salt.
(§8) The assays from which the Ki determinations were made were performed as follows. The assayed compound samples were incubated in separate wells of untreated white polystyrene plates (Nunc Nalgene International, Rochester, N.Y.), and analyzed on a Tecan SpectraFlour Plus plate reader. The excitation wavelength was 330 nm, and the emission wavelength -420 nm. All samples (assayed compounds and controls) were incubated in separate plate wells at room temperature for 1 hr in the presence of 4 μM of MMP substrate (A). In the absence of MMP inhibitory activity, substrate (A) was cleaved at the Gly-Leu bond resulting in an increase of relative fluorescence. Inhibition was observed as a reduced rate of this increase in relative fluorescence. […] This protocol is a modification of method by Knight et al., FEBS Lett., 296(3), 263-266 (1992). Apparent inhibitory constants were determined by non-linear regression of reaction velocity as a function of inhibitor and enzyme concentration using Morrison's equation, as described by Kuzmic, P., et al., Anal. Biochem., 286(1):45-50 (2000). Modifications were made in the non-linear regression method to allow a common control reaction rate and effective enzyme concentration to be shared between all dose-response relationships on a given assay plate. Since the substrate concentration was chosen to be at or below the Km, the apparent Ki's from this analysis were reported as Ki's without correction for the influence of substrate.
(§9) The above protocols were used to determine MMP inhibition Ki constants for the compounds in Examples 1, 2, and 4-42 above. All Ki values in Table 3 are given in nM units.

In another data set the target is T2, Human recombinant MMP-14 (Homo sapiens, UniProt P50281).
T2 construct: The catalytic domain enzyme was expressed in E. Coli inclusion bodies; made in house
Put plainly: In vitro MMP inhibition analysis (fluorogenic peptide substrate), MMP-14. Format: biochemical. To be noted: human recombinant catalytic domain; 4 μM substrate (A); apparent Ki without substrate correction. As to the method: as §1, §2
The MMP-14 full length cDNA was provided by Dr. Gregory Goldberg of Washington University (St. Louis, Mo.). The catalytic domain enzyme was expressed in E. Coli inclusion bodies, solubilized in urea, purified on a preparative […] reverse phase HPLC column, and then refolded in the presence of zinc acetate and purified for use.
as §3, §4, §5, §6, §7, §8, §9

A further data set concerns the target T3, Human recombinant MMP-9 (Homo sapiens, UniProt P14780).
T3 construct: made in house; host or cells: MMP-9-transfected HT1080 cells (spent media)
The data set is described as follows: In vitro MMP inhibition analysis (fluorogenic peptide substrate), MMP-9. Format: biochemical. To be noted: human recombinant enzyme; 4 μM substrate (A); apparent Ki without substrate correction. On the procedure: as §1, §2
The MMP-9 proenzyme was purified by gelatin Sepharose chromatography from spent media of MMP-9-transfected HT1080 cells provided by Dr. Howard Welgus of Washington University (St. Louis, Mo.).
as §3, §4, §5, §6, §7, §8, §9

Another data set addresses T4, Human recombinant MMP-1 (Homo sapiens, UniProt P03956).
T4 construct: made in house; host or cells: MMP-1-transfected HT-1080 cells (spent media)
T4 sequence (P03956 100-469): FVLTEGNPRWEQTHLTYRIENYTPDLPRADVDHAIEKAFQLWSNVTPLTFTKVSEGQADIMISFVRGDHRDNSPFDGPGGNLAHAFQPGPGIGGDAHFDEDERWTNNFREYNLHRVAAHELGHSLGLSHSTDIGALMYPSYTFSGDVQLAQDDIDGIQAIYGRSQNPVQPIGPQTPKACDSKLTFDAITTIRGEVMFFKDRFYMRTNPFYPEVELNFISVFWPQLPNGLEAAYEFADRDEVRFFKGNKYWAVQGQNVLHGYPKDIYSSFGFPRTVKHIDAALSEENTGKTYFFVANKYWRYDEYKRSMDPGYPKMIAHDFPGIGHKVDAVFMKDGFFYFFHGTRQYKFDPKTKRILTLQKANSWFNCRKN
Put plainly: In vitro MMP inhibition analysis (fluorogenic peptide substrate), MMP-1. Type of data set: biochemical. To be noted: human recombinant enzyme; 4 μM substrate (A); apparent Ki without substrate correction. On the procedure: as §1, §2
The MMP-1 proenzyme was purified from the spent media of MMP-1-transfected HT-1080 cells provided by Dr. Harold Welgus of Washington University (St. Louis, Mo.). The protein was purified on a zinc chelating column.
as §3, §4, §5, §6, §7, §8, §9

T3 sequence (P14780 107-707 limits assumed): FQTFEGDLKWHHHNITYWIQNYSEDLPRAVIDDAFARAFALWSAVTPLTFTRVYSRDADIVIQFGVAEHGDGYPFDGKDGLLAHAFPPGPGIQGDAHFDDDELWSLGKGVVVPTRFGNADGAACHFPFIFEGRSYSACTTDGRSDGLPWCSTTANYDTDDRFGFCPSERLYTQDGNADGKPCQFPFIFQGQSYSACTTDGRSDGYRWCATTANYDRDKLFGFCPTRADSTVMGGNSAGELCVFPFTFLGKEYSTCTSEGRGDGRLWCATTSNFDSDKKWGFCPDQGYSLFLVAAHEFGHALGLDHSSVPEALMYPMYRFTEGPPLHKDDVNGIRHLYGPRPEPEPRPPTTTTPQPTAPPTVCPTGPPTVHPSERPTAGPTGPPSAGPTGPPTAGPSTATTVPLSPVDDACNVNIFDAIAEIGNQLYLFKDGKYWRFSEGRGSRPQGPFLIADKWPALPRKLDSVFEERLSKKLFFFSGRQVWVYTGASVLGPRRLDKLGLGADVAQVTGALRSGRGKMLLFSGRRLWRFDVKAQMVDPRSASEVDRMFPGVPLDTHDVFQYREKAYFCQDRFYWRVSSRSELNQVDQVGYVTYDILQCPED

Turning to `CNC(=O)[C@@H](NC(=O)[C@H](CC(C)C)[C@H](O)C(=O)NO)C(C)(C)C` [Marimastat], in data set [1] (Phase I/II studies, patients with advanced solid tumor cancers), the “effect on cancer-specific antigens used as surrogate markers for biological activity” value is on record as “dose-related reduction in the rise of cancer-specific antigens”. In data set [1] (clinical trials, patients), the “most common drug-related toxicity” value was “musculoskeletal pain and stiffness”.

For the compound `O=C(c1ccc(-c2ccc(S(=O)(=O)C3(C(=O)NO)CCOCC3)cn2)cc1)N1CCCCC1` [Example 77], the Ki at Human recombinant MMP-2 was 4.97 µM; on Human recombinant MMP-14, greater than 10 µM; on Human recombinant MMP-9, greater than 10 µM; on Human recombinant MMP-1, greater than 10 µM.

As for `O=C(c1ccc(-c2ccc(S(=O)(=O)C3(C(=O)NO)CCOCC3)cn2)cc1)N1CCOCC1` [Example 80], the Ki at Human recombinant MMP-2 was 1.76 µM; at Human recombinant MMP-14, greater than 10 µM; on Human recombinant MMP-9, greater than 10 µM; on Human recombinant MMP-1 it was greater than 10 µM.
